Tests used:
corn = assay: Test A postemergence; type: in vivo, Zea mays
Summary of the method: (§1)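 Visual injury rating, 0–100 (0 no effect, 100 complete control), vs untreated controls ~10 days after treatment in greenhouse. Pre: directed soil spray on seeded loam/sand. Post: 2–10 cm plants, 1–2 leaf stage. Formulation: non-phytotoxic solvent mix + surfactant.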

galium = assay: Test A postemergence; type: in vivo, Galium aparine; details: Postemergence
Summary of the method: as §1

barnyardgrass [1] = assay: Test A preemergence; type: in vivo, Echinochloa crus-galli; details: preemergence; for Barnyardgrass plant response rating (0 to 100 scale, 0 is no effect, 100 is complete control): 125 g ai/ha, visual injury approx. 10 days after treatment; for Barnyardgrass plant response rating: 500 g ai/ha, visual injury after approx. 10 days, 0 to 100 scale (0 no effect, 100 complete control)
Summary of the method: as §1

foxtail, giant [2] = assay: Test A postemergence; type: in vivo, Setaria faberii
Summary of the method: as §1

common ragweed [3] = assay: Test A preemergence; type: in vivo, Ambrosia elation; details: for Common Ragweed plant response rating (0 to 100 scale): 125 g ai/ha, visual injury approx. 10 days after treatment; for Common Ragweed plant response rating: 500 g ai/ha, visual injury after approx. 10 days, 0 to 100 scale (0 no effect, 100 complete control)
Summary of the method: as §1

sedge, umbrella = assay: Test B flood; type: in vivo, Cyperus difformis; details: 250 g ai/ha, visual rating on 0 to 100 scale (0 no effect, 100 complete control), 13 to 15 days
Summary of the method: (§2)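 Plants were grown to the 2-leaf stage and pots flooded to 3 cm above soil. Compounds were applied directly into the paddy water, with depth kept for the test. After 13–15 days in greenhouse, response was rated visually against controls on a 0 (no effect) to 100 (complete control) scale.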

kochia [4] = assay: Test A preemergence; type: in vivo, Kochia scoparia; details: 125 g ai/ha, visual injury approx. 10 days after treatment
Summary of the method: as §1

wheat = assay: Test A postemergence; type: in vivo, Triticum aestivum; details: Postemergence
Summary of the method: as §1

pigweed [5] = assay: Test A postemergence; type: in vivo, Amaranthus retroflexus; details: Postemergence
Summary of the method: as §1

pigweed [6] = assay: Test A preemergence; type: in vivo, Amaranthus retroflexus; details: preemergence, 125 g ai/ha, visual injury approx. 10 days after treatment
Summary of the method: as §1

rice = assay: Test B flood; type: in vivo, Oryza sativa; details: 250 g ai/ha, visual rating on 0 to 100 scale (0 no effect, 100 complete control), 13 to 15 days
Summary of the method: as §2

barnyardgrass [7] = assay: Test A postemergence; type: in vivo, Echinochloa crus-galli
Summary of the method: as §1

blackgrass = assay: Test A postemergence; type: in vivo, Alopecurus myosuroides
Summary of the method: as §1

kochia [8] = assay: Test A postemergence; type: in vivo, Kochia scoparia; details: Postemergence
Summary of the method: as §1

Italian ryegrass [9] = assay: Test A postemergence; type: in vivo, Lolium multiflorum; details: Postemergence
Summary of the method: as §1

Italian ryegrass [10] = assay: Test A preemergence; type: in vivo, Lolium multiflorum; details: for Italian Ryegrass plant response rating (0 to 100 scale): 125 g ai/ha, visual injury approx. 10 days after treatment; for Italian Ryegrass plant response rating: 500 g ai/ha, visual injury after approx. 10 days, 0 to 100 scale (0 no effect, 100 complete control)
Summary of the method: as §1

barnyardgrass [11] = assay: Test B flood; type: in vivo, Echinochloa crus-galli; details: 250 g ai/ha, visual rating on 0 to 100 scale (0 no effect, 100 complete control), 13 to 15 days
Summary of the method: as §2

foxtail, giant [12] = assay: Test A preemergence; type: in vivo, Setaria faberii; details: preemergence; for Foxtail, Giant plant response rating (0 to 100 scale): 125 g ai/ha, visual injury approx. 10 days after treatment; for Foxtail, Giant plant response rating: 500 g ai/ha, visual injury after approx. 10 days, 0 to 100 scale (0 no effect, 100 complete control)
Summary of the method: as §1

ducksalad = assay: Test B flood; type: in vivo, Heteranthera limosa; details: 250 g ai/ha, visual rating on 0 to 100 scale (0 no effect, 100 complete control), 13 to 15 days
Summary of the method: as §2

common ragweed [13] = assay: Test A postemergence; type: in vivo, Ambrosia elation
Summary of the method: as §1

[14] = Postemergence, 500 g ai/ha, 0 to 100 scale (0 no effect, 100 complete control)
[15] = postemergence, 125 g ai/ha, about 10 days, visual rating on 0 to 100 scale (0 no effect, 100 complete control)
[16] = 125 g ai/ha, 0 to 100 scale, 0 no effect, 100 complete control
[17] = 500 g ai/ha, 0 to 100 scale (0 no effect, 100 complete control)
[18] = Postemergence, 125 g ai/ha, 0 to 100 scale, 0 no effect, 100 complete control

Compound | Corn plant response rating (corn; [14]) | Galium plant response rating (galium; [16]) | Galium plant response rating (galium; [17]) | Barnyardgrass plant response rating (0 to 100 scale, 0 is no effect, 100 is complete control) (barnyardgrass [1]) | Barnyardgrass plant response rating (barnyardgrass [1]) | Foxtail, Giant plant response rating (foxtail, giant [2]; [14]) | Common Ragweed plant response rating (0 to 100 scale) (common ragweed [3]) | Common Ragweed plant response rating (common ragweed [3]) | Plant response rating, Sedge, Umbrella (sedge, umbrella) | Kochia plant response rating (0 to 100 scale) (kochia [4]) | Wheat plant response rating (wheat; [16]) | Wheat plant response rating (wheat; [17]) | Pigweed plant response rating (pigweed [5]; [16]) | Pigweed plant response rating (pigweed [5]; [17]) | Pigweed plant response rating (0 to 100 scale) (pigweed [6]) | Plant response rating, Rice (rice) | Barnyardgrass plant response rating (barnyardgrass [7]; [14]) | Blackgrass plant response rating (blackgrass; [14]) | Kochia plant response rating (kochia [8]; [16]) | Kochia plant response rating (kochia [8]; [17]) | other results
CCCNC(=O)c1cc(CC)n(Cc2cc(C(F)(F)F)nn2C(C)C)n1 [Compound 209] | 0 | 0 | 0 | 0 | 0 | 0 | 0 | 0 | 0 | 0 | 0 | 0 | 0 | 0 | 0 | 0 | 0 | 0 | 0 | 0 | Corn plant response rating (corn; [15]): 0; Foxtail, Giant plant response rating (foxtail, giant [2]; [15]): 0; Barnyardgrass plant response rating (barnyardgrass [7]; [15]): 0; Blackgrass plant response rating (blackgrass; [15]): 0; Italian Ryegrass plant response rating (Italian ryegrass [9]; [16]): 0; Italian Ryegrass plant response rating (Italian ryegrass [9]; [17]): 0; Italian Ryegrass plant response rating (0 to 100 scale) (Italian ryegrass [10]): 0; Italian Ryegrass plant response rating (Italian ryegrass [10]): 0; Plant response rating, Barnyardgrass (barnyardgrass [11]): 0; Foxtail, Giant plant response rating (0 to 100 scale) (foxtail, giant [12]): 0; Foxtail, Giant plant response rating (foxtail, giant [12]): 0; Plant response rating, Ducksalad (ducksalad): 0; Common Ragweed plant response rating (common ragweed [13]; [14]): 0; Common Ragweed plant response rating (common ragweed [13]; [15]): 0
CCc1cc(C(=O)NC(C)C)nn1Cc1cc(C(F)(F)F)nn1C(C)C [Compound 210] | 0 | 0 | 20 | 0 | 0 | 0 | 0 | 0 | 0 | 0 | 0 | 0 | 0 | 20 | 0 | 0 | 0 | 0 | 10 | 20 | Corn plant response rating (corn; [18]): 0; Foxtail, Giant plant response rating (foxtail, giant [2]; [18]): 0; Barnyardgrass plant response rating (barnyardgrass [7]; [18]): 0; Blackgrass plant response rating (blackgrass; [18]): 0; Italian Ryegrass plant response rating (Italian ryegrass [9]; [16]): 0; Italian Ryegrass plant response rating (Italian ryegrass [9]; [17]): 0; Italian Ryegrass plant response rating (0 to 100 scale) (Italian ryegrass [10]): 0; Italian Ryegrass plant response rating (Italian ryegrass [10]): 0; Plant response rating, Barnyardgrass (barnyardgrass [11]): 0; Foxtail, Giant plant response rating (0 to 100 scale) (foxtail, giant [12]): 0; Foxtail, Giant plant response rating (foxtail, giant [12]): 0; Plant response rating, Ducksalad (ducksalad): 0; Common Ragweed plant response rating (common ragweed [13]; [18]): 0; Common Ragweed plant response rating (common ragweed [13]; [14]): 0

Reference: patent publication US20150105252A1, “SUBSTITUTED PYRAZOLES AS HERBICIDES” (E I DU PONT DE NEMOURS AND COMPANY, priority 2013, published 2015)
